Measured values: patent publication US20060194883A1, “Mmp expression inhibitor” (EISAI CO., LTD, priority 2003, published 2006)

Columns and labels:
[1] = system: hepatic cancer cells (HepG2); test: Matrigel invasion test (double chamber); type: cell-based; details: 10^−6 to 10^−4 M, 24 hours, NIH3T3 feeder
Experimental: To investigate the effect of menatetrenone in inhibiting invasion and metastasis of cancer cells, menatetrenone was added to hepatic cancer cells (HepG2) at concentrations of 0 M, 10^−6 M, 10^−5 M and 10^−4 M, and ability of the cancer cells to invade Matrigel was measured. In this test, cancer cells were spread on Matrigel which had been coated on the upper chamber of a double chamber, menatetrenone was added thereto. NIH3T3 cells were spread on the lower chamber as a feeder. The number of cells that had passed through the Matrigel and migrated to the bottom of the upper chamber after 24 hours was observed microscopically.

[2] = system: MMP-3; test: Western blot of MMP protein expression in hepatic cancer cells; type: cell-based; details: hepatic cancer cells (HepG2, Hep3B, Huh7)
Experimental: (§1) Testing was performed by Western blot to investigate MMP expression. In this test protein expressions of MMP-1 and MMP-3 were investigated when menatetrenone was added to various hepatic cancer cells (HepG2, Hep3B, Huh7).

[3] = system: MMP-1; test: as above; type: cell-based; details: hepatic cancer cells (HepG2, Hep3B, Huh7)
Experimental: as §1

[4] = system: uPA (urokinase plasminogen activator); test: gene expression with TPA induction, RT-PCR; type: cell-based; details: HepG2
Experimental: (§2) MMP and Ets-1, the expression of which is inhibited by menatetrenone, are known to be genes that are induced by 12-O-tetradecanoylphorbol-13-acetate (TPA) as well as uPA (urokinase plasminogen activator) and the like. In order to discover whether menatetrenone controls expression of genes activated by TPA, TPA was added to HepG2 cultured hepatic cancer cells at a concentration of 20 nM, menatetrenone was then added thereto, and RT-PCR and Western blot were performed to investigate whether expression of the aforementioned gene expression of which was induced by TPA was affected. […] On the other hand, the uPA receptor uPAR and the uPA inhibitor PAI were not affected.

[5] = system: MMP-3; test: gene expression with TPA induction, RT-PCR; type: cell-based; details: HepG2
Experimental: as §2

[6] = system: Ets-1; test: gene expression with TPA induction, RT-PCR; type: cell-based; details: HepG2
Experimental: as §2

[7] = system: MMP-7; test: gene expression with TPA induction, RT-PCR; type: cell-based; details: HepG2
Experimental: as §2

[8] = system: MMP-1; test: gene expression with TPA induction, RT-PCR; type: cell-based; details: HepG2
Experimental: as §2

[9] = cited from earlier work
[10] = system: p16; test: CDK inhibitor expression by RT-PCR in hepatic cancer cells; type: cell-based; details: 10^−6 to 10^−4 M
Experimental: (§3) To investigate the mechanism of inhibition of cell proliferation, genes involved in promoting the cell cycle were focused on, and changes caused by addition of menatetrenone in the amount of expression of CDK inhibitors p21, p27 and p16 which inhibit cyclin dependent kinase (CDK), an enzyme which promotes the cell cycle, were analyzed by the RT-PCR and Western blot methods. In this test, menatetrenone was added at concentrations of 0 M, 10^−6 M, 10^−5 M and 10^−4 M to HepG2, Huh7, Hep3B and HLE hepatic cancer cell lines, RNA was collected after 48 hours, and 1 μg of total RNA was subjected to RT-PCR to investigate expression of p21, p27 and p16. RT-PCR was performed on GAPDH (glyceraldehyde 3-phosphate dehydrogenase) as a control.

[11] = cited from earlier work; remark: listed apart in the source
[12] = system: MMP-1 promoter; test: MMP gene promoter activity test (luciferase reporter); type: cell-based; details: Huh7 cells, 48 hours
Experimental: (§4) Next, promoter reporter genes for MMP-1, MMP-3 and MMP-7 were introduced into Huh7 hepatic cancer cells, and the effect of menatetrenone on the activity of these MMP promoters was investigated. The MMP-1, MMP-3 and MMP-7 promoter-luciferase reporter plasmids used were prepared by replacing the reporter gene part of the MMP promoter-CAT reporter plasmid reported in Ozaki I, Mizuta T, Zhang H, Yoshimura T, Kawazoe S, Eguchi Y, Yasutake T, Hisatomi A, Sakai T and Yamamoto K, “Induction of multiple matrix metalloproteinase genes in human hepatocellular carcinoma by hepatocyte growth factor via a transcription factor Ets-1,” Hepatol. Res. 27, 288-300. The various MMP-luciferase plasmids were introduced into Huh7 hepatic cancer cells using lipofectamine, menatetrenone was added at various concentrations, and after 48 hours the cells were collected and luciferase activity measured to investigate the effects of menatetrenone on MMP-1, MMP-3 and MMP-7 gene promoter activity.

[13] = system: MMP-3 promoter; test: as above; type: cell-based; details: Huh7 cells, 48 hours
Experimental: as §4

[14] = system: MMP-7 promoter; test: as above; type: cell-based; details: Huh7 cells, 48 hours
Experimental: as §4

[15] = system: transcription factor Ets-1; test: RT-PCR of invasion-related factors in hepatic cancer cells; type: cell-based; details: hepatic cancer cells (HepG2, Hep3B, Huh7)
Experimental: (§5) Test was performed by RT-PCR to investigate MMP expression. This test was to investigate expression of various MMPs (MMP-1, MMP-2, MMP-3, MMP-7, MMP-9 and MMP-14 (MT1-MMP)) and of transcription factor Ets-1 that affect MMP expression and the extracellular matrix receptor β1 integrin when menatetrenone was added to various hepatic cancer cells (HepG2, Hep3B, Huh7).

[16] = system: GAPDH; test: as above; type: cell-based; details: hepatic cancer cells (HepG2, Hep3B, Huh7)
Experimental: as §5

[17] = system: MMP-3; test: as above; type: cell-based; details: hepatic cancer cells (HepG2, Hep3B, Huh7)
Experimental: as §5

[18] = system: MMP-14 (MT1-MMP); test: as above; type: cell-based; details: hepatic cancer cells (HepG2, Hep3B, Huh7)
Experimental: as §5

[19] = system: β1 integrin; test: as above; type: cell-based; details: hepatic cancer cells (HepG2, Hep3B, Huh7)
Experimental: as §5

[20] = system: MMP-7; test: as above; type: cell-based; details: hepatic cancer cells (HepG2, Hep3B, Huh7)
Experimental: as §5

[21] = system: MMP-1; test: as above; type: cell-based; details: hepatic cancer cells (HepG2, Hep3B, Huh7)
Experimental: as §5

[22] = system: AP-1; test: gel shift assay of transcription factor binding activity; type: cell-based; details: HepG2 nuclear proteins after 24 hours; 32P-labeled DNA probe
Experimental: (§6) MMP have binding sites for transcription factors AP-1, Ets-1, Tcf/Lef and the like at common to their promoter regions and which are known to regulate MMP expression. Gel shift assay was performed to investigate whether the binding activity of transcription factors AP-1 and Tcf/Lef, which regulate MMP expression, is affected by addition of menatetrenone. In this test menatetrenone was added to HepG2 hepatic cancer cells, nuclear proteins were extracted after 24 hours and reacted with double-stranded DNA having binding sites for AP-1 and Tcf/Lef labeled with ^32P, and gel shift assay was performed. […] Reduction and shifting of the band was also seen with anti-c-fos antibodies (“S” in the Figure).

[23] = system: Tcf/Lef; test: as above; type: cell-based; details: HepG2 nuclear proteins after 24 hours; 32P-labeled DNA probe
Experimental: as §6

[24] = system: MMP-3; test: gene expression with TPA induction, Western blot; type: cell-based; details: HepG2, 20 nM TPA then menatetrenone
Experimental: as §2

[25] = system: MMP-1; test: gene expression with TPA induction, Western blot; type: cell-based; details: HepG2, 20 nM TPA then menatetrenone
Experimental: as §2

[26] = system: HLE hepatic cancer cell line; test: cell proliferation by WST assay; type: cell-based; details: 10^−6 to 10^−4 M, 48 hours, vs control without menatetrenone
Experimental: (§7) Menatetrenone was added at concentrations of 0 M, 10^−6 M, 10^−5 M and 10^−4 M to HepG2, Huh7, Hep3B and HLE hepatic cancer cell lines, and cell proliferation was studied by WST assay after 48 hours.

[27] = system: Hep3B hepatic cancer cell line; test: cell proliferation by WST assay; type: cell-based; details: 10^−6 to 10^−4 M, 48 hours, vs control without menatetrenone
Experimental: as §7

[28] = system: Huh7 hepatic cancer cell line; test: cell proliferation by WST assay; type: cell-based; details: 10^−6 to 10^−4 M, 48 hours, vs control without menatetrenone
Experimental: as §7

[29] = system: HepG2 hepatic cancer cell line; test: cell proliferation by WST assay; type: cell-based; details: 10^−6 to 10^−4 M, 48 hours, vs control without menatetrenone
Experimental: as §7

[30] = system: p27; test: CDK inhibitor expression by RT-PCR and Western blot in hepatic cancer cells; type: cell-based; details: 10^−6 to 10^−4 M
Experimental: as §3, with “control. In this test, menatetrenone was added at concentrations of 0 M, 10^−6 M, 10^−5 M and 10^−4 M to HepG2, Huh7, Hep3B and HLE hepatic cancer cell lines, proteins were extracted from the various cells, subjected to SDS-PAGE electrophoresis, blotted on PVP membranes and then incubated with p21 and p27 antibodies, and p21 and p27 protein expression was investigated by ECL.” for “control.”

[31] = system: p21; test: as above; type: cell-based; details: 10^−6 to 10^−4 M
Experimental: as §3, with “control. In this test, menatetrenone was added at concentrations of 0 M, 10^−6 M, 10^−5 M and 10^−4 M to HepG2, Huh7, Hep3B and HLE hepatic cancer cell lines, proteins were extracted from the various cells, subjected to SDS-PAGE electrophoresis, blotted on PVP membranes and then incubated with p21 and p27 antibodies, and p21 and p27 protein expression was investigated by ECL.” for “control.”

[32] = system: HepG2 hepatic cancer cells; test: cell cycle analysis by flow cytometry (FACS); type: cell-based; details: 10^−6 to 10^−4 M, 48 hours
Experimental: (§8) To investigate the effects of menatetrenone on the cell cycles of cancer cells, distributions according to DNA amount in hepatic cancer cells to which menatetrenone had been added were analyzed by flow cytometry (FACS). In this test, menatetrenone was added at concentrations of 0 M, 10^−6 M, 10^−5 M and 10^−4 m to HepG2, Huh7, Hep3B and HLE hepatic cancer cells, and changes in the cell cycles were observed by FACS 48 hours later.

[33] = system: Huh7 hepatic cancer cells; test: cell cycle analysis by flow cytometry (FACS); type: cell-based; details: 10^−6 to 10^−4 M, 48 hours
Experimental: as §8

[34] = system: HLE hepatic cancer cells; test: cell cycle analysis by flow cytometry (FACS); type: cell-based; details: 10^−6 to 10^−4 M, 48 hours
Experimental: as §8

[35] = system: Hep3B hepatic cancer cells; test: cell cycle analysis by flow cytometry (FACS); type: cell-based; details: 10^−6 to 10^−4 M, 48 hours
Experimental: as §8

[36] = system: uPA receptor uPAR; test: gene expression with TPA induction, RT-PCR; type: cell-based; details: HepG2; 20 nM of TPA alone
Experimental: as §2

[37] = system: uPA inhibitor PAI; test: gene expression with TPA induction, RT-PCR; type: cell-based; details: HepG2; 20 nM of TPA alone
Experimental: as §2

CC(C)=CCC/C(C)=C/CC/C(C)=C/CC/C(C)=C/CC1=C(C)C(=O)c2ccccc2C1=O [menatetrenone, 2-methyl-3-tetraprenyl-1,4-naphthoquinone]
dissolves very little: solubility in water [9]
inhibited: protein expression of MMP-3 [2] | protein expression of MMP-1 [3]
slight increase: p16 expression ([10]; Hep3B cells) | p21 expression ([31]; Hep3B cells)
did not affect: binding activity of Tcf/Lef [23]
~50%: decrease of MMP-1 promoter activity [12] | decrease of MMP-7 promoter activity [14]
dose-dependently inhibited: TPA-induced mRNA expression of uPA ([4]; 20 nM TPA then menatetrenone) | TPA-induced mRNA expression of MMP-3 ([5]; 20 nM TPA then menatetrenone) | TPA-induced mRNA expression of Ets-1 ([6]; 20 nM TPA then menatetrenone) | TPA-induced mRNA expression of MMP-7 ([7]; 20 nM TPA then menatetrenone) | TPA-induced mRNA expression of MMP-1 ([8]; 20 nM TPA then menatetrenone) | MMP-1 promoter activity [12] | MMP-3 promoter activity [13] | MMP-7 promoter activity [14] | expression of the transcription factor Ets-1 [15] | expression of mRNA of MMP-3 [17] | expression of mRNA of MMP-14 [18] | expression of mRNA of MMP-7 [20] | expression of mRNA of MMP-1 [21] | binding activity of AP-1 [22] | TPA-induced expression of MMP-3 at the protein level [24] | TPA-induced expression of MMP-1 at the protein level [25] | cell proliferation [26] | cell proliferation [27] | cell proliferation [28] | cell proliferation [29]
no changes: p16 expression ([10]; Huh7 cells) | expression of GAPDH mRNA [16] | expression of β1 integrin mRNA [19] | p27 expression ([30]; Huh7 cells) | p21 expression ([31]; Huh7 cells)
increased dose-dependently: proportion of G1-phase cells [32] | proportion of G1-phase cells [33] | proportion of G1-phase cells [34] | proportion of G1-phase cells [35]
easily decomposed by light: stability to light [11]
decreased: G2-phase cells [32] | G2-phase cells [33] | G2-phase cells [34] | G2-phase cells [35]
dose-dependently inhibits: ability of cancer cells to invade Matrigel [1]
no change: p27 expression ([30]; Hep3B cells)
increases: p27 mRNA expression ([30]; HepG2 cells, 48 hours) | p21 mRNA expression ([31]; HepG2 cells, 48 hours)

CCCCCCCCCCCCCC(=O)O[C@@H]1[C@@H](C)[C@@]2(O)[C@@H](C=C(CO)C[C@]3(O)C(=O)C(C)=C[C@@H]23)[C@@H]2C(C)(C)[C@]12OC(C)=O [TPA, 12-O-tetradecanoylphorbol-13-acetate]
not affected: mRNA expression of uPAR [36] | mRNA expression of PAI [37]
increased: mRNA expression of uPA ([4]; 20 nM of TPA alone) | mRNA expression of MMP-3 ([5]; 20 nM of TPA alone) | mRNA expression of Ets-1 ([6]; 20 nM of TPA alone) | mRNA expression of MMP-7 ([7]; 20 nM of TPA alone) | mRNA expression of MMP-1 ([8]; 20 nM of TPA alone)
